Patent publication US8828988B2 (Tetraphase Pharmaceuticals, Inc., priority 2009, dated 2014)
Values after ≈ are worked out from the molar mass of the structure shown. Read-outs that look alike come from different tables or passages of the source. Each block holds one compound with its values, some of them ahead of it.

Legend:
[1] = tested on: E. coli S30 extract system, coupled in vitro transcription/translation, firefly luciferase readout; test: In vitro transcription/translation (TnT) assay; format: biochemical; conditions: for IC50, in vitro transcription/translation system: E. coli S30 extract, luciferase readout
[2] = tested on: E. faecalis clinical isolates; test: MIC50, MIC90 and MIC range, panel of clinical isolates (Example 20); format: cell-based; conditions: 24 isolates, in µg/mL
Method: (§1) The assays were run as follows.
(§2) Both values, as well as the MIC range (the lowest and highest MIC value observed for a collection of organisms), were determined for the isolates listed in Table 3.

[3] = tested on: S. aureus clinical isolates; test: as above; format: cell-based; conditions: MRSA, 30 isolates; in µg/mL
Method: as §1, §2

[4] = tested on: S. pneumoniae clinical isolates; test: as above; format: cell-based; conditions: 19 isolates
Method: as §1, §2

[5] = tested on: E. coli DH10B(pBAD-tetK), expressing tet(K); test: MIC against recombinant E. coli expressing tet(K); format: cell-based; conditions: for MIC: Escherichia coli
Text: (§3) Constructs were transformed into E. coli DH10B for expression. Recombinant strains were pre-induced under optimized conditions with L-arabinose prior to use as inocula in CLSI standardized MIC assays.

[6] = tested on: E. coli DH10B(pBAD-tetM), expressing tet(M); test: MIC against recombinant E. coli expressing tet(M); format: cell-based; conditions: for MIC: Escherichia coli; for Ratio (TetM induced / Uninduced): ratio of MICs
Text: as §3

[7] = tested on: Staphylococcus aureus SA101, ATCC 29213, MSSA; test: MIC assay, SA101; format: cell-based
[8] = tested on: Staphylococcus aureus SA161, HA-MRSA, tetracycline-resistant, tet(M); test: MIC assay, SA161; format: cell-based; conditions: Table 8, read-out: MIC S. aureus MRSA, tetM
[9] = tested on: Staphylococcus aureus SA158, tetracycline-resistant tet(K); test: MIC assay, SA158; format: cell-based; conditions: Table 8, read-out: MIC S. aureus tetK
[10] = tested on: Enterococcus faecalis EF103, ATCC 29212; test: MIC assay, EF103; format: cell-based; conditions: Enterococcus faecalis, ATCC29212; Table 8; read-out: MIC E. faecalis ATCC 29212
[11] = tested on: Enterococcus faecalis EF159, tetracycline-resistant, tet(M); test: MIC assay, EF159; format: cell-based
[12] = tested on: Streptococcus pneumoniae SP106, ATCC 49619; test: MIC assay, SP106; format: cell-based
[13] = tested on: Streptococcus pneumoniae SP160, tetracycline-resistant, tet(M); test: MIC assay, SP160; format: cell-based; conditions: Table 8, read-out: MIC S. pneumoniae tetM
[14] = tested on: Escherichia coli EC107, ATCC 25922; test: MIC assay, EC107; format: cell-based
[15] = tested on: Escherichia coli EC155, tetracycline-resistant, tet(A); test: MIC assay, EC155; format: cell-based
[16] = tested on: Staphylococcus aureus SA100, ATCC 13709, MSSA, Smith strain; test: MIC assay, SA100; format: cell-based
[17] = tested on: H. influenzae isolates (Eurofins-Medinet, recent clinical isolates); test: MIC50 and MIC90 analysis (Example 22)
[18] = tested on: S. aureus strains collected from various geographical sources; test: MIC50 and MIC90 analysis (Example 22)
E. coli ATCC 25922 = test: Mouse systemic infection model, E. coli septicemia; conditions: mouse septicemia, E. coli ATCC 25922, treatment one hour post-challenge, survival after 48 hours
[19] = tested on: S. aureus ATCC 13709 (Smith); test: Mouse systemic infection model, S. aureus septicemia; conditions: mouse septicemia, S. aureus ATCC 13709, intravenous treatment one hour post-challenge, survival after 48 hours
[20] = Table 8, read-out: MIC S. aureus ATCC 29213
[21] = Table 8, read-out: MIC E. faecalis tetM
[22] = ATCC49619, Table 8, read-out: MIC S. pneumoniae ATCC 49619
[23] = ATCC25922, Table 8, read-out: MIC E. coli ATCC 25922
[24] = Table 8, read-out: MIC E. coli tetA

SMILES: CN(C)[C@@H]1C(O)=C(C(N)=O)C(=O)[C@@]2(O)C(O)=C3C(=O)c4c(O)c(N)nc(F)c4C[C@H]3C[C@@H]12 [Compound 125]
- TnT IC50 [1]: 0.93 µg/mL
- IC50, in vitro transcription/translation system [1]: sub-μg/ml

SMILES: CN(C)[C@@H]1C(O)=C(C(N)=O)C(=O)[C@@]2(O)C(O)=C3C(=O)c4c(O)c(NC(=O)CNC(C)(C)C)nc(Cl)c4C[C@H]3C[C@@H]12 [Compound 132]
- TnT IC50 [1]: 0.78 µg/mL
- IC50, in vitro transcription/translation system [1]: sub-μg/ml

SMILES: CCCc1nc(N(C)C)c2c(c1O)C(=O)C1=C(O)[C@]3(O)C(=O)C(C(N)=O)=C(O)[C@@H](N(C)C)[C@@H]3C[C@@H]1C2 [Compound 141]
- MIC Range [2]: 1-8
- MIC Range [3]: 2-4
- MIC Range ([4]; in µg/mL): 0.25-8
- MIC ([5]; read-out: MIC, TetK Induced): 32 µg/mL
- MIC ([5]; read-out: MIC, Uninduced): > 32 µg/mL
- MIC ([6]; read-out: MIC, TetM induced): 32 µg/mL
- MIC ([6]; read-out: MIC, Uninduced): 32 µg/mL
- Ratio (TetM induced / Uninduced) [6]: 1

- MIC [7, 20]: 0.031 µg/mL (≈ 0.0715 µM)
- MIC [8]: 8 µg/mL (≈ 18.5 µM)
- MIC [9]: 8 µg/mL (≈ 18.5 µM)
- MIC [10]: 4 µg/mL (≈ 9.23 µM)
- MIC [11, 21]: 32 µg/mL (≈ 73.8 µM)
- MIC [12, 22]: 0.016 µg/mL (≈ 0.0369 µM)
- MIC [13]: 8 µg/mL (≈ 18.5 µM)
- MIC [14, 23]: 0.25 µg/mL (≈ 0.577 µM)
- MIC [15, 24]: > 32 µg/mL
SMILES: CN(C)[C@@H]1C(O)=C(C(N)=O)C(=O)[C@@]2(O)C(O)=C3C(=O)c4c(O)cnc(F)c4C[C@H]3C[C@@H]12 [Compound 144]

SMILES: CN(C)[C@@H]1C(O)=C(C(N)=O)C(=O)[C@@]2(O)C(O)=C3C(=O)c4c(O)c(N)nc(Cl)c4C[C@H]3C[C@@H]12 [Compound 147]
- TnT IC50 [1]: 1.1 µg/mL

SMILES: C[C@H]1COc2c(N3CCN(C)CC3)c(F)cc3c(=O)c(C(=O)O)cn1c23 [Levofloxacine, levofloxacin, reference compound]
- MIC ([5]; read-out: MIC, TetK Induced): 0.0156 µg/mL
- MIC ([5]; read-out: MIC, Uninduced): 0.0156 µg/mL
- MIC ratio, TetK induced to uninduced ([5]; ratio of TetK induced to uninduced MIC): 1
- MIC ([6]; read-out: MIC, TetM induced): 0.0156 µg/mL
- MIC ([6]; read-out: MIC, Uninduced): 0.0156 µg/mL
- Ratio (TetM induced / Uninduced) [6]: 1

SMILES: CN(C)[C@@H]1C(O)=C(C(N)=O)C(=O)[C@@]2(O)C(O)=C3C(=O)c4c(O)cccc4[C@@](C)(O)[C@H]3C[C@@H]12 [Tetracycline, tetracycline, reference compound]
- MIC [7, 20]: 0.25 µg/mL (≈ 0.563 µM)
- MIC ([7]; Table 9, read-out: MIC S. aureus ATCC 29213): 0.5 µg/mL (≈ 1.13 µM)
- MIC ([16]; Table 12, read-out: MIC S. aureus ATCC 13709): 0.5 µg/mL (≈ 1.13 µM)
- MIC [8]: 64 µg/mL (≈ 144 µM)
- MIC [10]: 8 µg/mL (≈ 18 µM)
- MIC [11, 21]: 64 µg/mL (≈ 144 µM)
- MIC ([11]; Table 9, read-out: MIC E. faecalis EF159 (tet)M): > 32 µg/mL
- MIC [12, 22]: 0.063 µg/mL (≈ 0.142 µM)
- MIC ([12]; ATCC49619, Table 9, read-out: MIC S. pneum ATCC 49619): 0.25 µg/mL (≈ 0.563 µM)
- MIC [15, 24]: > 64 µg/mL
- MIC ([15]; Table 9, read-out: MIC E. coli EC155 (tet)A): > 32 µg/mL
- MIC ([5]; read-out: MIC, TetK Induced): > 32 µg/mL
- MIC ([6]; read-out: MIC, TetM induced): > 32 µg/mL
- MIC Range ([17]; H. influenzae (n = 12)): 0.25 to 16 µg/mL
- MIC50 ([17]; Haemophilus influenzae): 0.5 µg/mL (≈ 1.13 µM)
- MIC Range ([18]; S. aureus (n = 20)): 0.06 to 32 µg/mL
- MIC50 ([18]; Staphylococcus aureus): 0.13 µg/mL (≈ 0.293 µM)
- MIC90 ([18]; Staphylococcus aureus): 0.25 µg/mL (≈ 0.563 µM)
- PD50 (E. coli ATCC 25922): 17.0 mg/kg
- PD50 [19]: 0.35 mg/kg

- MIC [7, 20]: 0.06 µg/mL (≈ 0.131 µM)
- MIC [8]: 8 µg/mL (≈ 17.5 µM)
- MIC [9]: 0.03 µg/mL (≈ 0.0656 µM)
- MIC [11, 21]: 16 µg/mL (≈ 35 µM)
- MIC [12, 22]: ≤ 0.016 µg/mL
- MIC [13]: 2 µg/mL (≈ 4.37 µM)
- MIC [14, 23]: 0.5 µg/mL (≈ 1.09 µM)
- MIC [15, 24]: 8 µg/mL (≈ 17.5 µM)
SMILES: CN(C)c1ccc(O)c2c1C[C@H]1C[C@H]3[C@H](N(C)C)C(O)=C(C(N)=O)C(=O)[C@@]3(O)C(O)=C1C2=O [minocycline, reference compound]

SMILES: CN(C)c1cc(NC(=O)CNC(C)(C)C)c(O)c2c1C[C@H]1C[C@H]3[C@H](N(C)C)C(O)=C(C(N)=O)C(=O)[C@@]3(O)C(O)=C1C2=O [tigecycline, reference compound]
- MIC ([16]; read-out: MIC S. aureus ATCC 13709): 0.13 µg/mL (≈ 0.222 µM)
- MIC ([14]; ATCC25922, read-out: MIC E. coli ATCC 25922): 0.13 µg/mL (≈ 0.222 µM)
- MIC Range [2]: <=0.016-0.13
- MIC Range [3]: 0.063-0.25
- MIC Range [4]: ≦0.016
- TnT IC50 [1]: 0.47 µg/mL
- PD50 (E. coli ATCC 25922): 2.1 mg/kg
- PD50 [19]: 0.35 mg/kg
